Laboratory results from patent publication US6933315B2, “Derivatives of isoindigo, indigo and indirubin and methods of treating cancer” (priority 2001, dated 2005).
Like-named read-outs stand apart in the source and are kept apart here.

Columns and labels:
LNCaP cells = test: DNA fragmentation (ladder) in LNCaP cells; assay type: cell-based, Human; conditions: 15 μM, 2 days
Procedure: Once cancer cells have been arrested at G1 phase by either derivatives of the invention, such as, Meisiondigo or NATURA, they will either differentiate or enter apoptosis. […] FIG. 8 confirms that Meisoindigo and NATURA cause apoptosis. The formation of DNA fragmentation (ladder) were measured, an indicator of cell apoptosis, in both LNCaP prostate and N2A neuroblastoma cells. To do this LNCaP and neuroblastoma N2A cells at exponential growth phase were exposed to indicated concentrations of Meisoindigo or NATURA or Taxol (20 nM, as a positive control) for 2 days. The cells were harvested, washed and DNA extracted. Approximately 2 μg per lane of DNA were subjected to 2% agarose gel electrophoresis.
Induction of Apoptosis: As we mentioned previously that cancer cells probably have two options after arrest at G1 phase, i.e. differentiation or apoptosis. […] To confirm our hypothesis and earlier observations, we measured poly(ADP-ribose) polymerase (PARP) degradation and the formation of DNA fragmentation (ladder), indicators of cell apoptosis, in both LNCaP prostate and N2A neuroblastoma cells. LNCaP and neuroblastoma N2A cells at exponential growth phase were exposed to indicated concentrations of Meisoindigo or NATURA or Taxol (20 nM, as a positive control) for 2 days. The cells were harvested, washed and DNA extracted. […]

SKBR-3 = test: Growth inhibition by MTT, SKBR-3 breast cancer cells; assay type: cell-based, Human; conditions: Homo sapiens, read-out: IC50 SKBR-3
Procedure: (§1) Growth inhibitory effects of NATURA and other agents on human cancer cells were determined by standard MTT (3-(4,5-dimethylthiazol-2-yl)-2,5-diphenyltetrazolium bromide Test) as described previously. Briefly, cancer cells grown exponentially were aliquoted into 96-well plates at a density of 5000 cells/200 μl per well in RPMI 1640 medium containing 10% FBS overnight. The cells in the plates were then exposed to series of dilution of indicated agent. After 72 h of incubation, 100 μl of the medium was removed from each of the wells and 50 μl of a 1 mg/ml solution of 3-(4,5-dimethylthiazol-2-yl)-2,5-diphenyltetrazolium bromide (MTT) was added to each well and the cells were incubated for additional 4 h. 200 μl of solution of 0.04 N HCl-isopropanol was added to each well to dissolve the black fromazan participates, and absorbance at 540 nm was measured on a 96-Well.

LNCaP = test: Growth inhibition by MTT, LNCaP prostate cancer cells; assay type: cell-based, Human; conditions: Homo sapiens, LNCaP
Procedure: as §1, with “Briefly, cancer cells grown exponentially were aliquoted into 96-well plates at a density of 5000 cells/200 μl per well in RPMI 1640 medium containing 10% FBS overnight.” left out
The cells in the plates were then exposed to series of dilution of indicated agent. After 72 h of incubation, 100 μl of the medium was removed from each of the wells and 50 μl of a 1 mg/ml solution of 3-(4,5-dimethylthiazol-2-yl)-2,5-diphenyltetrazolium bromide (MTT) was added to each well and the cells were incubated for additional 4 h. 200 μl of solution of 0.04 N HCl-isopropanol was added to each well to dissolve the black fromazan participates, and absorbance at 540 nm was measured on a 96-Well Microplate Reader. Each experiment was repeated at least three times.

cdk4/6 = cdk4/6 activity immuno-precipitated from treated LNCaP cells; assay type: cell-based, Human
Procedure: (§2) Assay for cyclin dependent kinase activity: HUVEC and LNCaP cells were cultured in EMB (endothelial cell basal medium) and RPMI 1640 containing 10% FBS, respectively. The cells grown exponentially were exposed to indicated concentrations of meisoindigo or NATURA for 24 hr. The cells were harvested, washed, and total proteins extracted as described previously. One hundred μg of the proteins were immuno-precipitated using antibodies against cdk2, cdk4/6, PKC, ERK2 or cyclin D1 overnight at 4° C. in the presence of a cocktail of protease inhibitors. The immuno-precipitates were washed 4 times with protein extraction buffer and once with kinase assay buffer, and reacted with 75 μg/ml histone H1 in the presence of [γ-^32P]-ATP (2.5 μCi/10 μM). The phosphorylated histone H1 (represent cdk activity) was measured by scintillation counting or by SDS-polyacrylaimde gel electrophoresis. The direct inhibitory effects of Meisoindigo and NATURA were also measured by reaction of immuno-purified specific enzyme from untreated cells directly with the Meisoindigo or NATURA.
as §2, with “HUVEC” for “Assay for cyclin dependent kinase activity: HUVEC”, “either cdk4/6” for “cdk2, cdk4/6, PKC, ERK2”, “[γ-^32P]-ATP.” for “[γ-^32P]-ATP (2.5 μCi/10 μM).”, “counting.” for “counting or by SDS-polyacrylaimde gel electrophoresis. The direct inhibitory effects of Meisoindigo and NATURA were also measured by reaction of immuno-purified specific enzyme from untreated cells directly with the Meisoindigo or NATURA.”

[1] = Acute toxicity, median lethal dose LD50; conditions: for DFP (Frequency of Death): mice, oral, two weeks
Procedure: The animals were given Meisoindigo suspension orally at dosage of 0, 1.85, 2.60, 3.60, 5.10, 7.14, and 10.00 g/kg respectively. The animals were tested for two weeks, and the LD50 was measured using modified Bliss method as follows.
LD50 was calculated using following equation: LD50=log^−1 [Xm−i(ΣDFP−0.5)]
Here, Xm is the maximal frequency of death, Xm=I in this case; i is the distance of group. It is determined by following equation, in this case r=1.4 i=log 1/r=0.146

[2] = MTT, 72 h exposure (Table 3), read-out: IC50 LNCaP
[3] = 15 μM, LNCaP cells exposed 24 h

SMILES | DNA fragmentation (LNCaP cells) | IC50 (SKBR-3; SK-BR-3, 72 h) | IC50 (LNCaP; [2]) | inhibition of D cyclins mediated cdk4/6 enzyme activity (cdk4/6; 5.0 μM, LNCaP cells, 24 h) | inhibition of D cyclins mediated cdk4/6 enzyme activity (cdk4/6; [3]) | Unit of DF ([1]; Dose 1.86 g/kg) | [DF]^2P^2 ([1]; Dose 1.86 g/kg) | LD50 at 2 weeks ([1]; Kuan Ming, mouse, in vivo, po) | LD50 ([1]; Kuan Ming, mouse, in vivo, po, 2 weeks) | DFP (Frequency of Death) ([1]; Dose 1.86 g/kg) | DFP (Frequency of Death) ([1]; Dose 2.60 g/kg) | DFP (Frequency of Death) ([1]; Dose 3.60 g/kg) | DFP (Frequency of Death) ([1]; Dose 5.10 g/kg) | DFP (Frequency of Death) ([1]; Dose 7.14 g/kg) | DFP (Frequency of Death) ([1]; Dose 10.00 g/kg) | IC50 (SKBR-3; SK-BR-3, MTT, 72 h exposure) | IC50 (LNCaP; Table 10, read-out: IC50 in LNCaP cells (NATURA and its derivatives)) | activity on cdk4 compared with cdk2 (cdk4/6; 5 μM, LNCaP cells, 24 hours) | inhibitory affect on cdk4/6 activity compared with same concentration of meisoindigo (cdk4/6; 5.0 μm, FIG. 7)
CN1C(=O)/C(=C2/C(=O)Nc3ccccc32)c2ccccc21 [Meisoindigo] | significant DNA fragmentation | 2170 ± 170 nM | 2340 ± 330 nM | Over 56% | complete inhibition | 2.674 | 0 | 3900 ± 800 mg/kg | 3900 ± 800 mg/kg | 0 | 0.20 | 0.60 | 0.70 | 0.80 | 1.00 | – | – | – | –
CC(=O)OC1COC(N2C(=O)/C(=C3/C(=O)Nc4ccccc43)c3ccccc32)C(OC(C)=O)C1OC(C)=O [NATURA, 1-(β-D-O-Triacetyl-xylopyranosyl)-isoindigo] | significant DNA fragmentation | – | 1720 ± 270 nM | Over 56% | complete inhibition | – | – | 7330 ± 1150 mg/kg | – | – | – | – | – | – | – | 1710 ± 140 nM | 1720 nM | slight stronger activity | greater inhibitory affect
